Experiments:
[1] = molecular target: T1, Recombinant human JAK2 kinase domain protein (Residues 812-1132) (Homo sapiens, UniProt O60674); assay: JAK2 biochemical assay (microfluidic mobility shift, peptide phosphorylation); conditions: 25 μM ATP, 0.2 nM total JAK2; Ki calculated from Ki app (tight-binding, competitive); read-out: Biochem JAK2 Ki
T1 construct: human JAK2 kinase domain protein (Residues 812-1132); made in house; host or cells: insect cells
Procedure, shortened: (§1)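 Insect-cell-expressed human JAK1 (1 nM, residues 854-1154) or JAK2 (0.2 nM, residues 812-1132) phosphorylating 1.5 μM 5-FAM peptide Y-1B with 25 μM ATP, pH 7.2 HEPES, 30 min at 22-23 °C; twelve concentrations up to 1000 nM in duplicate. Mobility-shift % conversion fitted to tight-binding quadratic for Ki^app.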

[2] = system: JAK1 (IL-13-stimulated STAT6 phosphorylation in BEAS-2B cells); assay: P-STAT6 BEAS-2B+IL-13 cell assay; assay type: cell-based, human; conditions: Homo sapiens, BEAS-2B, 1 h, 1 hour compound, IL-13 15 minutes, IC50 by four-parameter fit, read-out: Cellular JAK1 PSTAT6 BEAS2B + IL13
Procedure, shortened: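 BEAS-2B human bronchial epithelial cells preincubated 1 h at 37 °C with compound, then stimulated with human recombinant IL-13 for 15 min. Phospho-STAT6 (Tyr641) in lysates measured by MSD electrochemiluminescence immunoassay; IC50 from a four-parameter logistic fit of percent of control.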

[3] = molecular target: T2, recombinant human JAK1 kinase domain protein (Residues 854-1154) (Homo sapiens, UniProt P23458); assay: JAK1 biochemical assay (microfluidic mobility shift, peptide phosphorylation); conditions: 25 μM ATP, 1 nM total JAK1; Ki calculated from Ki app (tight-binding, competitive); read-out: Biochem JAK1 Ki
T2 construct: human JAK1 kinase domain protein (Residues 854-1154); purchased Proteros Biostructures GmbH (Martinsried, Germany); host or cells: insect cells
Procedure, shortened: as §1

T1 sequence (O60674 812-1132): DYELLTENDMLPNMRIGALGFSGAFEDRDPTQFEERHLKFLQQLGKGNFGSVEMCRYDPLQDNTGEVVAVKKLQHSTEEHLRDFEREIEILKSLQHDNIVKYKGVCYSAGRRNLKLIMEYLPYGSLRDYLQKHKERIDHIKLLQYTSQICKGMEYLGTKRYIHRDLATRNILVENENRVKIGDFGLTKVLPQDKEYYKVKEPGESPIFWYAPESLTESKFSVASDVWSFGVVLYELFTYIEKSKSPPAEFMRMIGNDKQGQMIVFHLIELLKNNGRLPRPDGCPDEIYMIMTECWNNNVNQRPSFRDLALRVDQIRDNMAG
T2 sequence (P23458 854-1154): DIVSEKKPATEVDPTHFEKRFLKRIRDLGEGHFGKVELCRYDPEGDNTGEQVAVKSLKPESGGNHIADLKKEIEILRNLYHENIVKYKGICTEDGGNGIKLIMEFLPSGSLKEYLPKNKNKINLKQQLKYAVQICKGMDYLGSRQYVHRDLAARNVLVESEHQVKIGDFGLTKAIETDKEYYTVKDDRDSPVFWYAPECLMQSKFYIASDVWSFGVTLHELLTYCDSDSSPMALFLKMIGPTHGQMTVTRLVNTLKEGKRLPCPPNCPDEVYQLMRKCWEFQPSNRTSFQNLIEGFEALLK

| SMILES | Ki [1] | Ki [3] | IC50 [2] |
| --- | --- | --- | --- |
| NC1CCC(n2nnnc2Cn2cc(NC(=O)c3cnn4cccnc34)c(-c3cc(OC(F)F)ccc3OC(F)F)n2)CC1 (stereo not drawn) [Example 69, N-[1-[[1-(4-aminocyclohexyl)tetrazol-5-yl]methyl]-3-[2,5-bis(difluoromethoxy)phenyl]pyrazol-4-yl]pyrazolo[1,5-a]pyrimidine-3-carboxamide] | 0.97 nM | 0.75 nM | ≥ 1000 nM |
| CN(C)[C@H]1C[C@@H](N2CC(n3nnc(Cn4cc(NC(=O)c5cnn6cccnc56)c(-c5cc(OC(F)F)ccc5OC(F)F)n4)n3)C2)C1 [Example 71, N-[3-[2,5-bis(difluoromethoxy)phenyl]-1-[[2-[1-[3-(dimethylamino)cyclobutyl]azetidin-3-yl]tetrazol-5-yl]methyl]pyrazol-4-yl]pyrazolo[1,5-a]pyrimidine-3-carboxamide] | 1.1 nM | 1.4 nM | 23 nM |
| CC(C)Sc1ccc(OC(F)F)c(-c2nn(Cc3nnn(C4CN(C5CCN(C)CC5)C4)n3)cc2NC(=O)c2cnn3cccnc23)c1 [Example 79, N-[3-[2-(difluoromethoxy)-5-isopropylsulfanyl-phenyl]-1-[[2-[1-(1-methyl-4-piperidyl)azetidin-3-yl]tetrazol-5-yl]methyl]pyrazol-4-yl]pyrazolo[1,5-a]pyrimidine-3-carboxamide] | 0.44 nM | 0.5 nM | 40 nM |
| CN(C)C1(CCN2CC(n3nnc(Cn4cc(NC(=O)c5cnn6cccnc56)c(-c5cc(OC(F)F)ccc5OC(F)F)n4)n3)C2)CC1 [Example 80, N-[3-[2,5-bis(difluoromethoxy)phenyl]-1-[[2-[1-[2-[1-(dimethylamino)cyclopropyl]ethyl]azetidin-3-yl]tetrazol-5-yl]methyl]pyrazol-4-yl]pyrazolo[1,5-a]pyrimidine-3-carboxamide; formic acid] | 0.41 nM | 0.46 nM | 40 nM |

Stronger by Ki [1], values ahead:

| Ki [1] | Ki [3] | SMILES | IC50 [2] |
| --- | --- | --- | --- |
| 0.39 nM | 0.38 nM | CN(C)C(C)(C)CCN1CC(n2nnc(Cn3cc(NC(=O)c4cnn5cccnc45)c(-c4cc(OC(F)F)ccc4OC(F)F)n3)n2)C1 [Example 77, N-[3-[2,5-bis(difluoromethoxy)phenyl]-1-[[2-[1-[3-(dimethylamino)-3-methyl-butyl]azetidin-3-yl]tetrazol-5-yl]methyl]pyrazol-4-yl]pyrazolo[1,5-a]pyrimidine-3-carboxamide] | 110 nM |
| 0.38 nM | 0.41 nM | CN(C)CCCN1CC(n2nnnc2Cn2cc(NC(=O)c3cnn4cccnc34)c(-c3cc(OC(F)F)ccc3OC(F)F)n2)C1 [Example 65, N-[3-[2,5-bis(difluoromethoxy)phenyl]-1-[[1-[1-[3-(dimethylamino)propyl]azetidin-3-yl]tetrazol-5-yl]methyl]pyrazol-4-yl]pyrazolo[1,5-a]pyrimidine-3-carboxamide] | 660 nM |
| 0.3 nM | 0.41 nM | CN(C)C1CCC(n2nnc(Cn3cc(NC(=O)c4cnn5cccnc45)c(-c4cc(OC(F)F)ccc4OC(F)F)n3)n2)CC1 (stereo not drawn) [Example 66, N-[3-[2,5-bis(difluoromethoxy)phenyl]-1-[[2-[4-(dimethylamino)cyclohexyl]tetrazol-5-yl]methyl]pyrazol-4-yl]pyrazolo[1,5-a]pyrimidine-3-carboxamide] | 32 nM |
